Assay results reported in PMC5464911, “SEL120-34A is a novel CDK8 inhibitor active in AML cells with high levels of serine phosphorylation of STAT1 and STAT5 transactivation domains” (Oncotarget, 2017).

Assays:
[1] = system: MOLM-14 cell line; set-up: method as in PMID 26416749; conditions: previously identified; cited from earlier work
[2] = target: CDK19/CycC (Homo sapiens, UniProt Q9BWU1); assay: Radiometric protein kinase assay (PanQinase, ProQinase)
Description: (§1) A radiometric protein kinase assay (PanQinase® Activity Assay, ProQinase) was used for measuring activities of CDK8/CycC and CDK19/CycC protein kinases.

[3] = target: CDK8/CycC (Homo sapiens, UniProt P49336); assay: as above
Description: as §1

[4] = system: RNAP II CTD S2 and S5; assay: RNAP II CTD phosphorylation in HCT-116 cells (WB); type: cell-based; conditions: SEL120-34A up to 2.5 μM
Protocol: 0,1% SDS; 20 mM β-glicerol phosphate; 5 mM NaF; cat. # sc835), α-STAT5-pS726 (1:1000; Abcam, cat. # 1 mM Na3VO4) supplemented with protease inhibitors ab128896), α-STAT5-pY694 (1:1000; Cell Signaling, (Santa Cruz Biotechnology). Tumor samples were cat. #C11C5), α-tubulin (1:4000; Sigma, cat. # T5192) homogenized in 15 sec intervals and kept on ice between and β-actin (1:4000, Sigma cat. # A2066) or GAPDH homogenization cycles. Protein concentration in lysates (1:20000; Sigma, cat. # G9545) was measured by the Bradford assay and adjusted to achieve the same final concentration in each well (20-30 mRNA extraction from xenograft tissue μg protein/well). […] A scoop Unless indicated otherwise, membranes were blocked of a tumor (~25mg) was homogenized with a pestle for 45 min with 2% fat-free dried milk (Rovema, Poland) under liquid nitrogen and immediately processed in Tris-buffered saline (TBS) + 0.05% Tween (TBST), according to the RNeasy Mini Kit protocol (Qiagen). incubated overnight at 4°C with primary antibodies diluted The RNA concentration was measured by a NanoDrop into 2% milk in TBST and washed four times for 10 min spectrophotometer and stored at -80°C for downstream with TBST. […]
with the activities of CDK9 in cells. […] Protein levels of RNAP II CTD pS2, pS5, cMYC and GAPDH were measured by WB.

[5] = system: STAT5 S726 and Y694; assay: STAT phosphorylation in SET-2 cells (JAK2 V617F), WB; type: cell-based; conditions: 24 hours
Protocol: (B) SEL120-34A inhibits IFN-dependent phosphorylation of STAT1 S727. HCT-116 cells stimulated with IFNg for 4 h were treated with increasing doses of SEL120-34A, Flavopiridol (F) or vehicle DMSO (C) to determine changes in the phosphorylation of STAT1 S727 and Y701, as measured by WB. (*) unspecific band. (C) SEL120-34A inhibits serine phosphorylation of STAT1 S727 and STAT5 S726, whereas Ruxolitinib inhibits tyrosine phosphorylation of STAT1 Y701 and STAT5 Y694 in JAK2 V617F cells. SET-2 cells were treated with Ruxolitinib, SEL120-34A or vehicle DMSO (C) for 24 hours and protein levels of pS727, pY701 STAT1 and pS726, pY694 STAT5 were measured by WB. […]
0,1% SDS; 20 mM β-glicerol phosphate; 5 mM NaF; cat. # sc835), α-STAT5-pS726 (1:1000; Abcam, cat. # 1 mM Na3VO4) supplemented with protease inhibitors ab128896), α-STAT5-pY694 (1:1000; Cell Signaling, (Santa Cruz Biotechnology). […] Protein concentration in lysates (1:20000; Sigma, cat. # G9545) was measured by the Bradford assay and adjusted to achieve the same final concentration in each well (20-30 mRNA extraction from xenograft tissue μg protein/well). […] Prior to microarray analyses, the quality of the incubation with secondary donkey anti-rabbit antibodies RNA samples was determined using an Agilent 2100 conjugated to HRP, used at 1:4000 (Cell Signaling, Bioanalyzer (Agilent Technologies, CA, USA). […]

[6] = system: Kasumi-1; assay: Extended viability test (AlamarBlue); type: cell-based; conditions: Homo sapiens, extended viability assay
[7] = system: PL-21; assay: Extended viability test (AlamarBlue); type: cell-based; conditions: extended viability assay
[8] = system: GDM-1; assay: Extended viability test (AlamarBlue); type: cell-based; conditions: Homo sapiens, extended viability assay
[9] = system: Oci-AML5; assay: Extended viability test (AlamarBlue); type: cell-based; conditions: Homo sapiens, OCI-AML-5; extended viability assay
[10] = system: ME-1; assay: Extended viability test (AlamarBlue); type: cell-based; conditions: extended viability assay
[11] = system: MOLM13; assay: Extended viability test (AlamarBlue); type: cell-based; conditions: Homo sapiens, MOLM-13; extended viability assay
[12] = system: SIG-M5; assay: Extended viability test (AlamarBlue); type: cell-based; conditions: Homo sapiens, extended viability assay
[13] = system: MOLM16; assay: Extended viability test (AlamarBlue); type: cell-based; conditions: extended viability assay
[14] = system: MV4-11; assay: Extended viability test (AlamarBlue); type: cell-based; conditions: Homo sapiens, extended viability assay
[15] = system: AML cell lines; assay: Broad profiling in a panel of AML cell lines (extended viability tests); type: cell-based; conditions: SKNO-1, KG-1, HEL-60, MOLM-16, MV-4-11, OciAML-2, MOLM-6 and OciAML-3; read-out: GI50 in sensitive responder cell lines
Protocol: Mean GI50 (day 10) is shown and plotted on the graph (n=3). (D) Levels of phosphorylated STAT5 S726 and […] in AML cells from the panel C were measured by WB. Densitometry for STAT5 S726 and […] signals is shown and plotted on the graph. Cell lines from the panel D were divided into two classes based on the sensitivity to CDK8 inhibitors treatment (responders GI50<1 μM and non-responder GI50>1 μM), mean levels of STAT5 S726 (E) or STAT1 S727 (F) in selected cell lines measured by densitometry were presented on scatter plots. Differences between responder and non-responder were assessed by t-tests (p value is shown).
Cells grown in suspension were plated onto 96-well culture dishes in triplicate at 20000 cells per well in 200 μl of their culture medium, except Kasumi-1 cells, which were plated at 60 000/well. Cells were incubated in the presence of vehicle, 1 μM docetaxel (positive control, Santa Cruz Biotechnology) or 6 serially - diluted concentrations of tested compound. The compound effect was determined by AlamarBlue measurement. On days 3, 6-7 and 10, an equal volume from all wells was also split-back with fresh media supplemented with tested compound, resulting in a cell density for the vehicle well that matched the initial seeding density. […]

[16] = system: EOL-1; assay: Extended viability test (AlamarBlue); type: cell-based; conditions: Homo sapiens, EOL1; extended viability assay
[17] = system: Oci-AML3; assay: Extended viability test (AlamarBlue); type: cell-based; conditions: Homo sapiens, OCI-AML-3; extended viability assay
[18] = system: KG-1; assay: Extended viability test (AlamarBlue); type: cell-based; conditions: Homo sapiens, extended viability assay
[19] = system: SKM-1; assay: Extended viability test (AlamarBlue); type: cell-based; conditions: Homo sapiens, extended viability assay

Chain of CDK8/CycC (P49336 whole entry): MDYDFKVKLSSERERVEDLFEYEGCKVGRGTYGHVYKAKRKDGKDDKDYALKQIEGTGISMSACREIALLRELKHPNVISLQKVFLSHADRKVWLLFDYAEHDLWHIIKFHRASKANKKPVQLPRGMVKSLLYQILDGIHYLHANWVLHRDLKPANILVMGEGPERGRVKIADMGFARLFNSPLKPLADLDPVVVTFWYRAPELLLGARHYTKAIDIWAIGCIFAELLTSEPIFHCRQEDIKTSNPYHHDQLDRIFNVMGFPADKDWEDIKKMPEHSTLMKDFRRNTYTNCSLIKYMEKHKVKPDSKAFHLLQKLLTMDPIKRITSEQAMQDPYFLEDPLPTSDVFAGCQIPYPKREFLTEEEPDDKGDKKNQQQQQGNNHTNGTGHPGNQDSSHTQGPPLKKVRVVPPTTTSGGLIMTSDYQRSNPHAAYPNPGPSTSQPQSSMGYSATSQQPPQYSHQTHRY
Chain of CDK8/CycC (P24863 whole entry partner): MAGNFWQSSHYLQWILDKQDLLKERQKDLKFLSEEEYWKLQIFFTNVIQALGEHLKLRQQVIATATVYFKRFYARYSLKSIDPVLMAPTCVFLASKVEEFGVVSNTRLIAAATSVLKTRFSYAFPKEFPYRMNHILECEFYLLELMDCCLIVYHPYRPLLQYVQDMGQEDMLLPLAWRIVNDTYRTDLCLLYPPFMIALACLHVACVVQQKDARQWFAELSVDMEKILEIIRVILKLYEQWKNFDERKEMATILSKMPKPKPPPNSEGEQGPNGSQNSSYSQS
Chain of CDK19/CycC (Q9BWU1 whole entry): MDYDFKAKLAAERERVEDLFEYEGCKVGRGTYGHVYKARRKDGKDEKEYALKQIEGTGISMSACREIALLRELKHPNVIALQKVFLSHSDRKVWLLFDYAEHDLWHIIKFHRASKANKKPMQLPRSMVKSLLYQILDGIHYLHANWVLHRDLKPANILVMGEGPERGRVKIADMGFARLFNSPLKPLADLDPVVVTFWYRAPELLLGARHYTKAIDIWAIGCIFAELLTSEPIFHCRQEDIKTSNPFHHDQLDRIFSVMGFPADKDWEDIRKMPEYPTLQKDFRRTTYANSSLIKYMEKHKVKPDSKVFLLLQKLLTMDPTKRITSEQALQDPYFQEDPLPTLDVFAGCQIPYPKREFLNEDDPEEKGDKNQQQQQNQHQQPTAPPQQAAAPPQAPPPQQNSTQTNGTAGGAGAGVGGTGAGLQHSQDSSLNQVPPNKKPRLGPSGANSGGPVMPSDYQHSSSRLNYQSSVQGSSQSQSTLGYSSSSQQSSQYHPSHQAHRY
Chain of CDK19/CycC (P24863 whole entry partner): as the sequence (P24863 whole entry partner) above

Q: With CN(C)[C@H]1C[C@@]23CC[C@@]4(O2)C(=CC[C@]2(C)[C@@H](c5ccc6ccncc6c5)CC[C@H]24)C=C3[C@@H](O)[C@@H]1O [CA, Cortistatin A] as the molecule, how does the “sensitivity of MOLM-14 cell line to treatment” value [1] read?
A: sensitive

Q: For Cn1cc(-c2ccc(-c3cncc(Cl)c3N3CCC4(CCNC4=O)CC3)cc2)cn1 [CCT251545, reference compound], which IC50 [2] is on record?
A: 14.4 nM

Q: What about the IC50 [3] of the same molecule?
A: 4.2 nM

Q: Which “RNAP II CTD phosphorylation at S2 and S5” value [4] does the source give for CN1CC[C@H](c2c(O)cc(O)c3c(=O)cc(-c4ccccc4Cl)oc23)[C@H](O)C1 [Flavopiridol, reference compound] here?
A: active

Q: For N#CC[C@H](C1CCCC1)n1cc(-c2ncnc3[nH]ccc23)cn1 [Ruxolitinib, reference compound], which “STAT5 S726 phosphorylation” value [5] is on record?
A: unaffected

Q: And the “STAT5 Y694 phosphorylation” value [5]?
A: inhibition

Q: Which GI50 [6] does the source give for CN1CCN(C(=O)c2ccc3cc(CCNc4ncnc5ccc(C#N)cc45)ccc3c2)CC1 [Senexin B, reference compound] here?
A: 5000 nM

Q: What about the GI50 [7] of the same molecule?
A: 2600 nM

Q: And the GI50 [8]?
A: 270 nM

Q: What about the GI50 [9] of the same molecule?
A: 70 nM

Q: And the GI50 [10]?
A: 170 nM

Q: What about the GI50 [11] of the same molecule?
A: 5000 nM

Q: And the GI50 [12]?
A: 5000 nM

Q: What about the GI50 [13] of the same molecule?
A: 340 nM

Q: What about the GI50 [14] of the same molecule?
A: 230 nM

Q: And the GI50 [15]?
A: < 1000 nM

Q: And the GI50 [16]?
A: 960 nM

Q: And the GI50 [17]?
A: 360 nM

Q: And the GI50 [18]?
A: 150 nM

Q: What about the IC50 [3] of the same molecule?
A: 17.3 nM

Q: And the GI50 [19]?
A: 5000 nM
